According to PubChem BioAssay AID1963833 (Molecular Pharmacology Branch, DTP, NCI, 2024):
pIC50: −log10 of the molar value.

Test system: 883617-216-R-J1-PDC complex spheroid viability
Experiment: Anticancer human tumor 883617-216-R-J1-PDC patient-derived bladder carcinoma cell line growth inhibition [POLQ]
Details: for pIC50: curve of first compound; for viability, T/C: stronger effect = lower value
Protocol: Multicellular complex tumor spheroid response to Polymerase (POL) inhibitors (novobiocin, ART-558, RP6685) in combination with a variety of drugs and investigational agents in selected tumor cell lines
The POL inhibitors (novobiocin, ART-558, and RP6685) were evaluated both individually and in combination with standard of care and investigational anticancer small molecules within a complex spheroid model of solid tumors. . Complex spheroids include a stromal component modeled by human endothelial cells (HUVEC) and fibroblasts modeled by human mesenchymal stem cells (MSCs). The concentration ranges selected for each drug and investigational agent were based upon clinically achievable concentrations if the clinical Cmax of the agent was known.
Compounds. The drugs and investigational agents: novobiocin (NSC847541), ART-558 (NSC835418), RP-6685 (NSC848927), peposertib (NSC802822), ceralasertib (NSC780249), elimusertib (NSC800525), camonsertib (NSC841442), AZD-1390 (NSC803789), olaparib (NSC753686), talazoparib (NSC767125), rucaparib (NSC756644), sotorasib (NSC818433), MRTX-1133 (NSC836407), SN-38 (NSC673596), topotecan (NSC609699), epotoside (NSC141540), doxorubicin (NSC123127), gemcitabine (NSC613327), 5-fluorouracil (NSC19893), paclitaxel (NSC125973), vemurafenib (NSC761431), MSA-2 (NSC828583), SN-011 (NSC837082), adavosertib (NSC754352), prexasertib (NSC758257), carboplatin (NSC241240) and oxaliplatin (NSC266046), were obtained from the National Cancer Institute (NCI) Developmental Therapeutics Program Chemical Repository (21). The FDA-approved anticancer drug set is available from the Developmental Therapeutics Program at https://dtp.cancer.gov/organization/dscb/obtaining/. […] The stock solutions were prepared in dimethyl sulfoxide (DMSO, Sigma-Aldrich, St. Louis, MO, cat. D2650), except for the platinum compounds which were prepared in saline (Quality Biological, Gaithersburg, MD, cat. 114-055-101), at 800-fold the tested concentration and stored at -70 degrees C prior to their use. All drugs and investigational agents were tested over a range starting from a high concentration at or near the clinical Cmax and decreasing in half-log increments. If the clinical Cmax for an agent had not been determined, the highest concentration tested was 10 microM, except for SN-38, which was tested at a high concentration of 1 microM.
Cell Culture. All cells were maintained in an incubator at 37 degrees C and 5% CO2 with 95% humidity. The PDC lines were cultured according to standard operating procedures established by the NCI PDMR (https://pdmr.cancer.gov). Table 3 of the manuscript, lists the cell lines along with the number of the three cell types plated to form the mct-spheroids and media for tumor cell growth. After thawing, all PDC lines, except 997537-175-T-J1-PDC and 415267-285-R-J2-PDC, were cultured in Matrigel-coated flasks prepared with a working solution of 1X Ham's F-12 nutrient mix, without supplementation (Thermo Fisher Scientific, cat. 11765054), 100 U/mL penicillin-streptomycin (Thermo Fisher Scientific, cat. 15140122), and 2.5% Matrigel (Corning Inc., Corning, NY, cat. 354248) for the first three passages. The two PDC lines 997537-175-T-J1-PDC and 415267-285-R-J2-PDC were cultured on uncoated flasks. The 857933-349-R-J2-PDC line was cultured in 6C/Colon 1B media containing advanced DMEM/F-12 (Thermo Fisher Scientific, cat. 12634028), 10 mM HEPES (Thermo Fisher Scientific, cat. 15630080), 1X GlutaMAX supplement (Thermo Fisher Scientific, cat. 35050061), 0.1 mg/mL primocin (InvivoGen, San Diego, CA, cat. ant-pm-2), 10% defined fetal bovine serum, heat inactivated (HyClone Laboratories Inc., Logan, UT, cat. SH30070.03HI), 50% L-WRN conditioned media (ATCC, cat. CRL-3276), 1.25 mM N-Acetyl-L-cysteine (Sigma-Aldrich, cat. A9165), 10 mM nicotinamide (Sigma-Aldrich, cat. N0636), 1X B-27 supplement (Thermo Fisher Scientific, cat. 17504044), 1X N-2 supplement (Thermo Fisher Scientific, cat. […]
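Further: spheroids exposed to compounds for seven days before readout.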
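Wherever viability, T/C is given: 100% = DMSO vehicle control viability.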

Work on `CC(=O)O[C@H]1C(=O)[C@@]2(C)[C@H]([C@H](OC(=O)c3ccccc3)[C@]3(O)C[C@H](OC(=O)[C@H](O)[C@@H](NC(=O)c4ccccc4)c4ccccc4)C(C)=C1C3(C)C)[C@]1(OC(C)=O)CO[C@@H]1C[C@@H]2O` + COC1C(OC(N)=O)C(O)C(Oc2ccc3c(O)c(NC(=O)c4ccc(O)c(CC=C(C)C)c4)c(=O)oc3c2C)OC1(C)C yielded a pIC50 (second compound 0.0316 µM) greater than 8.02, a pIC50 (second compound 0.1 µM) greater than 8.02 and a pIC50 (second compound 0.316 µM) greater than 8.02. The pIC50 (second compound 1 µM) was greater than 8.02, the pIC50 (second compound 3.16 µM) was greater than 8.02 and the pIC50 (second compound 10 µM) was greater than 8.02. The viability, T/C (second compound 0.0316 µM, first compound 0.00949 µM) was 39.5%, the viability, T/C (second compound 0.0316 µM, first compound 0.03 µM) was 27.8% and the viability, T/C (second compound 0.0316 µM, first compound 0.0949 µM) was 26.4%. For the same compound, the viability, T/C (second compound 0.0316 µM, first compound 0.3 µM) was 20.8%, the viability, T/C (second compound 0.0316 µM, first compound 0.949 µM) was 18.2% and the viability, T/C (second compound 0.0316 µM, first compound 3 µM) was 19.8%. It also gave a viability, T/C (second compound 0.1 µM, first compound 0.00949 µM) of 40.2%, a viability, T/C (second compound 0.1 µM, first compound 0.03 µM) of 34.2% and a viability, T/C (second compound 0.1 µM, first compound 0.0949 µM) of 23.4%. The viability, T/C (second compound 0.1 µM, first compound 0.3 µM) was 23.7%, the viability, T/C (second compound 0.1 µM, first compound 0.949 µM) was 19.6% and the viability, T/C (second compound 0.1 µM, first compound 3 µM) was 20.7%. For the same compound, the viability, T/C (second compound 0.316 µM, first compound 0.00949 µM) was 50.6%, the viability, T/C (second compound 0.316 µM, first compound 0.03 µM) was 27.9% and the viability, T/C (second compound 0.316 µM, first compound 0.0949 µM) was 25.4%. The viability, T/C (second compound 0.316 µM, first compound 0.3 µM) was 17.5%, the viability, T/C (second compound 0.316 µM, first compound 0.949 µM) was 16.1% and the viability, T/C (second compound 0.316 µM, first compound 3 µM) was 20.6%. The viability, T/C (second compound 1 µM, first compound 0.00949 µM) was 42.2%, the viability, T/C (second compound 1 µM, first compound 0.03 µM) was 28.2% and the viability, T/C (second compound 1 µM, first compound 0.0949 µM) was 19%. For the same compound, the viability, T/C (second compound 1 µM, first compound 0.3 µM) was 26%, the viability, T/C (second compound 1 µM, first compound 0.949 µM) was 20.5% and the viability, T/C (second compound 1 µM, first compound 3 µM) was 15.9%. The viability, T/C (second compound 3.16 µM, first compound 0.00949 µM) was 42.7%, the viability, T/C (second compound 3.16 µM, first compound 0.03 µM) was 31.1% and the viability, T/C (second compound 3.16 µM, first compound 0.0949 µM) was 21.9%. It also gave a viability, T/C (second compound 3.16 µM, first compound 0.3 µM) of 22.7%, a viability, T/C (second compound 3.16 µM, first compound 0.949 µM) of 23.7% and a viability, T/C (second compound 3.16 µM, first compound 3 µM) of 17.1%. For the same compound, the viability, T/C (second compound 10 µM, first compound 0.00949 µM) was 42.2%, the viability, T/C (second compound 10 µM, first compound 0.03 µM) was 27.1% and the viability, T/C (second compound 10 µM, first compound 0.0949 µM) was 15.1%. The viability, T/C (second compound 10 µM, first compound 0.3 µM) was 16%, the viability, T/C (second compound 10 µM, first compound 0.949 µM) was 21% and the viability, T/C (second compound 10 µM, first compound 3 µM) was 21.6%.
